Reference: patent publication US20170027973A1, “MODULARION OF INVARIANT NATURAL KILLER T CELLS IN THE TREATMENT OF SEPSIS” (LONDON HEALTH SCIENCES CENTRE RESEARCH INC., priority 2014, published 2017)

Tests used:
Format in all cases: in vivo, mouse
[1] = tested on: serum IL-4 and IFN-γ; assay: Serum IL-4 and IFN-γ by ELISA after i.p. glycolipid injection into naïve B6 mice
Method: FIG. 10: Effect of glycolipid agonists on cytokine expression in naïve B6 mice, and on iNKT cells in septic B6 mice. (a) Naïve B6 mice were injected i.p. with 4 μg OCH or KRN7000 or C20:2, and bled at 2, 12, and 24 hours post-injection. Serum samples were assayed for IL-4 and IFN-γ by enzyme-linked immunosorbent assay (ELISA). […] Vehicle-treated mice had cytokine levels below limits of detection. (b) B6 mice were given an intraperitoneal injection of fecal slurry (500 μL of a 90 mg/mL solution) to induce IAS and concomitantly treated with 4 μg of vehicle, OCH, or KRN7000. After 24 hours, mice were sacrificed, and cell suspensions from the liver and spleen were stained for the flow cytometric detection of CD1d tetramer+ TCRβ+iNKT cells.
Lyophilized OCH was generously provided by the National Institutes of Health (NIH) Tetramer Core Facility (Emory University, Atlanta, Ga.). Each vial containing 0.2 mg of OCH was solubilized in a vehicle solution containing 1 mL of sterile distilled water, 0.5% Tween 20, 56 mg of sucrose and 7.5 mg of histidine, and stored as aliquots at 4° C. until use. KRN7000 (α-GalCer, C26:0/C18:0) was purchased from Funakoshi Co. Ltd. (Tokyo, Japan), solubilized at 1 mg/ml in dimethylsulphoxide (DMSO), and stored as aliquots at −20° C. until use (29); the control vehicle was 2% DMSO in phosphate-buffered saline (PBS). C20:2 was synthesized and used as previously published (30, 31). For in vivo experiments, mice were injected intraperitoneally (i.p.) with a single dose of glycolipid (4 μg/dose) (30) within twenty minutes after induction of IAS.
Cytokine concentrations were determined by commercially available specific ELISA assays for IL-4 and IFN-γ (Ready-Set-Go kits, eBioscience). ODs were measured on a Benchmark Microplate Reader (Bio-Rad) at a wavelength of 450 nm for both cytokines.

[2] = tested on: splenic T, B, NK cells and macrophages; assay: Annexin V / 7-AAD flow cytometry of apoptotic splenic cell populations in septic B6 mice; conditions: for NK cell apoptosis / frequency of apoptotic macrophages: spleen; for frequency of apoptotic macrophages: compared to vehicle-treated mice
Source text: FIG. 7: Analysis of apoptotic cell populations in the spleens of septic B6 mice. Splenocytes from sham and septic B6 mice treated with OCH, KRN7000, or vehicle were stained for T, B, and Natural Killer (NK) cells, and macrophages, and further stained for Annexin V (a marker for early apoptosis) and 7-AAD viability dye. Early and late apoptotic cells (Annexin V+7AAD- and Annexin V+7AAD+ cells respectively) were quantified and compared between treatments. […] (n=3-6 mice per group). *p<0.05, **p<0.01, ***p<0.001 by one-way ANOVA with post-hoc Tukey's multiple comparison test. Data are representative of 3 independent experiments.
FIG. 8: Gating strategy to identify the percentage of apoptotic and necrotic immune cell populations. CD3-APC is shown as an example, but the same strategy was used for macrophages (F480-APC), B cells (B220-APC), and Natural Killer (NK) cells (NK1.1-PE).
Mouse hepatic, splenic, and omental cells (1×106), and human PBMCs (1×106) were washed with cold FACS buffer [PBS+2% fetal bovine serum (FBS)+0.1% sodium azide] and incubated with 5 μg/ml anti-mouse CD16/CD32 mAb (clone 2•4G2, Fc-block, eBiosciences) for 20 min on ice before staining with fluorescent monoclonal antibodies (mAbs) diluted in FACS buffer at 4° C. for 30-40 min. Cells were then washed and flow cytometry was performed using FACSCanto II (BD) with FlowJo software (Treestar).

[3] = tested on: splenocyte apoptosis; assay: Histology (H&E) and TUNEL staining of spleen, liver and omentum of septic B6 mice; conditions: for liver histopathology: among vehicle-, OCH- and KRN-treated mice; for lymphocytes in the omentum: histology; for histopathological scoring of degree of apoptosis in spleen: vehicle-treated: moderate
Source text: FIG. 6: Histopathology of septic B6 mice treated with glycolipid agonists of iNKT cells. […] Lymphocyte migration to the omentum is also ameliorated in OCH-treated mice compared to vehicle- and KRN7000-treated mice. There were no histopathological differences in the liver. Images are representative of 4 animals per treatment group (size bar, 50 μm). (b) Histopathological scoring of the degree of apoptosis observed within the spleens of sham and septic B6 mice treated with vehicle, KRN7000, or OCH (n=4 animals per treatment group). Apoptosis was defined histologically by the presence of cell clusters with nuclear shrinkage (karyorrhexis), dark eosinophilic cytoplasm, intact plasma membrane, and relative paucity of surrounding inflammatory cells within the splenic follicles on H&E staining. Scores assigned to each animal by a blinded independent pathologist were as follows: 0 for complete absence of apoptosis; 1 for mild presence of apoptosis (0-15% per follicle); 2 for moderate apoptosis (16-30% per follicle); and 3 for severe apoptosis (31-45% per follicle). ***p<0.0001 by two-tailed Mann Whitney U test.
Liver, spleen, and omentum from sham B6 mice, and vehicle-, OCH-, and KRN7000-treated septic B6 mice were fixed in 10% neutral buffered formalin, embedded in paraffin, sectioned, and stained with H&E or subjected to TUNEL staining using a commercially available kit (Calbiochem). At least four stained sections per spleen from four animals per treatment group were examined and scored for apoptosis by a board-certified veterinary pathologist (Welch) who was blinded to the study design. Apoptosis was defined histologically by the presence of cell clusters with nuclear shrinkage (karyorrhexis), dark eosinophilic cytoplasm, intact plasma membrane, and relative paucity of surrounding inflammatory cells within the splenic follicles on H&E staining (34). Scores assigned to each animal were as follows: 0 for complete absence of apoptosis; 1 for mild presence of apoptosis (0-15% per follicle); 2 for moderate apoptosis (16-30% per follicle); and 3 for severe apoptosis (31-45% per follicle). Photomicrographs were taken using a Nikon DS-Fi1 digital camera using NIS-elements software.

[4] = compared to vehicle- and KRN7000-treated mice

Row | Compound | serum levels of IFN-γ between 12 and 24 hours ([1]; 4 μg i.p.) | NK cell apoptosis [2] | frequency of apoptotic macrophages [2] | liver histopathology [3] | lymphocytes in the omentum [3] | histopathological scoring of degree of apoptosis in spleen [3] | serum IFN-γ at 24 hours ([1]; 4 μg i.p.) | time of peak of serum IFN-γ ([1]; 4 μg i.p., ELISA) [h] | time of peak of serum IL-4 ([1]; 4 μg i.p., ELISA) [h] | serum IL-4 at 12 to 24 hours ([1]; 4 μg i.p., relative to 2 hour peak) | IL-4:IFN-γ ratio based on peak values ([1]; OCH compared to KRN7000) | apoptosis of splenic B cells [2, 4] | apoptosis of splenic T cells [2, 4] | apoptotic cells within the spleen (H&E, TUNEL) [3, 4]
1 | CCCCCCCCCCCCCCCCCCCCCCCCCC(=O)N[C@@H](CO[C@H]1O[C@H](CO)[C@H](O)[C@H](O)[C@H]1O)[C@H](O)[C@H](O)CCCCCCCCCCCCCC [KRN7000, reference compound] | elevated | trend toward reduced apoptosis | reduced the frequency of apoptosis significantly | did not observe overt differences | significant increase | severe (3 for severe apoptosis (31-45% per follicle)) |  |  |  |  |  |  |  | 
2 | CCCCCCCCCCCCCCCCCCCCCCCC(=O)N[C@@H](COC1OC(CO)C(O)C(O)C1O)[C@H](O)[C@H](O)CCCCC (stereo partly shown) [OCH] |  | appeared to be reduced | reduced the frequency of apoptosis significantly | did not observe overt differences | fewer | mild (1 for mild presence of apoptosis (0-15% per follicle)) | almost undetectable | 12 | 2 | significantly reduced | higher | significantly reduced | significantly reduced | significant reduction
